Key:
[1] = system: cerebral ischemia/reperfusion (I/R) model; assay: Cerebral ischemia/reperfusion (I/R) model, middle cerebral artery occlusion (MCAO); type: in vivo; conditions: MCAO rats, 30 mg/kg p.o.
Method: Rats (280-320 g) were divided into five groups randomly (n = 10 per group): […] After lateral neck incision, the internal carotid artery, right common carotid artery […] and external carotid artery were exposed. A surgical nylon suture was gently advanced to occlude MCA until slight resistance was felt (18-20 mm from MCA bifurcation). 1.5 hours post MCAO, reperfusion was inducted by taking out the suture and the rats were immediately orally given the predetermined formulations. The sham operated group received the same surgery in the […] of the MCAO and drug treatment. The core body temperature was kept constant (37 ± 0.5 °C) for 24 h post reperfusion. Neurological deficit of rats was then assessed by the blinded Longa's method. […] The cerebral infarct area (White) was analyzed by Image-J and represented as a percentage of the total brain area. Histological alterations of brain samples from the remaining rats were analyzed via hematoxylin and esosin (H&E) staining and then observed under a microscope. The levels of malondialdehyde (MDA), superoxide dismutase (SOD) and glutathione peroxidase (GSH-Px) in brain lysates were determined 24 h after reperfusion according to the protocols of the specific agent kit (Servicebio, Wuhan, China).

[2] = In vitro drug release (dialysis method); type: physicochemical
Method: The release curves of the formulations were obtained using a dialysis method (Zhang et al., [2011]). […] The following procedures were performed as above.

[3] = Biodistribution in rats after oral administration; type: in vivo; conditions: p.o., 30 mg/kg, during 2 h
Method: Before the start of the experiment, rats were fasted while allowed to drink freely overnight. […] Rats were sacrificed 0.083, 0.25, 0.5, 1 and 2 h post-administration, and subsequently, the vital organs involving heart, liver, spleen, kidney, lung as well as brain were harvested and processed by following procedures. In brief, the harvest tissues were weighed and homogenized in cold saline. The obtained tissue lysates (100 μL) was methanol precipitated and centrifuged (4 °C, 15 min) followed by injection of the supernatant (50 μL) into HPLC. The NBP concentration in each tissue sample was calculated from the respective standard curves. […] Re= AUC0−t, tissue, formulation/AUC0−t, tissue, NBP suspension (Wang et al., [2014]) Ce=Cmax, tissue, formulation/Cmax, tissue, NBP suspension (Wang et al., [2021])

[4] = Pharmacokinetics in rats; type: in vivo, Sprague-Dawley rats
Method: Male Sprague-Dawley rats (250 ± 20 g) were obtained from the laboratory animal center of Zhengzhou University (Zhengzhou, China). The animal experiments were conducted in accordance with the Regional Ethics Committee and protocols from the Institutional Animal Care and Use Committee of Zhengzhou University. Rats were fasted overnight with free access of water before the pharmacokinetic studies. To begin with, rats were randomly assigned into three groups. […] 0.5 mL of blood was taken from rats by retro-orbital sinus at 0.083, 0.25, 0.5, 1, 2, 3, 4, 6, 8, and 10 h after administration, respectively. The concentration of NBP in plasma was determined by HPLC after suitable processing. Briefly, 300 µL methanol was mixed with 100 µL of plasma and the resultant suspension was centrifuged (12,000 rpm, 10 min). The supernatant obtained was analyzed by a validated HPLC method (Supplementary Table 2). The pharmacokinetic parameters were obtained using DAS 3.0 software (Mathematical Pharmacology Professional Committee of China) and were presented as mean ± SD. The absolute bioavailability (Fa) and the relative bioavailability (Fr) were calculated by the following equations, respectively: (4) Fa (%)=AUC0−t, oralDosei.v/AUC0−t, i.vDoseoral (5) Fr (%)=AUC0−t, formulation/AUC0−t, NBP suspension
Where AUC0−t represents the area under the pharmacokinetic curve throughout the study.

[5] = i.v., NBP solution, 30 mg/kg, n = 5

## CCCCC1OC(=O)c2ccccc21 (stereo not drawn) [NBP, N-butylphthalide]
[1]; 24 h
  neurological score compared with I/R group: no significant difference
[1]; TTC staining, percentage of total brain area
  infarct volume: 27.66 ± 2.59%
[2]; SGF pH 1.2 2 h then phosphate buffer pH 6.8, 37 °C
  cumulative release during 12 h: 6.79 ± 0.99%
[2]; SGF pH 1.2, 37 °C, 100 rpm
  cumulative drug release within 2 h: about 6%
[2]; SGF pH 1.2 then phosphate buffer pH 6.8, 37 °C
  24 h cumulative drug release amount: 6.79 ± 0.99%
[3]
  organ of main accumulation: mainly in the lung
[4]; i.v., 30 mg/kg (reference)
  Fa (absolute bioavailability): 100%
[4]; [5]
  AUC0-t: 7590 ± 780 ng·h/mL
  CLz: 44.2 ± 4.17 mL/min/kg
  Cmax: 25510 ± 3460 ng/mL
  tmax: 4.98 min
[4]; p.o., 30 mg/kg
  Fa (absolute bioavailability): 21.7%
  Fr (relative bioavailability to NBP suspension): 100%
[4]; p.o., 30 mg/kg, Figure 3(B)
  time at which Cmax was observed on plasma curve: 2 h
[4]; p.o., 30 mg/kg, n = 5
  AUC0-t: 1650 ± 320 ng·h/mL
  Cmax: 360 ± 130 ng/mL
  tmax: 61.2 ± 18.6 min
[4]; p.o., 30 mg/kg, n = 5, apparent clearance (CL/F)
  CLz: 201.8 ± 62.7 mL/min/kg

Source: article PMC8592624, “Rapid and improved oral absorption of N-butylphthalide by sodium cholate-appended liposomes for efficient ischemic stroke therapy” (Drug Delivery, 2021)
